US10751423B2 (Massachusetts Institute of Technology, priority 2016, dated 2020)
Non-standard residues stand in square brackets, D forms with d. Residues, ends and D or L forms follow the SMILES beside them. *: point of attachment. Dolaproine = CO[C@@H]([C@@H]1CCCN1)[C@@H](C)C(=O)O; Dil = CC[C@H](C)[C@H](NC)[C@@H](CC(=O)O)OC; X1 = C[C@@H](N*)[C@@H](O)c1ccccc1; NMeV = CN[C@H](C(=O)O)C(C)C

Legend:
BCL-2 siRNA = test: siRNA binding with various platinum species by MALDI-TOF-MS; details: 10-fold excess of platinum species
Experimental: A single-stranded siRNA (UCAGGUACUCAGUCAUCCACATT) (SEQ ID NO: 3) was mixed with OxaPt(II) at a molar ratio of 1:10 in RNAase free water (RNA final concentration: 50 μM; Pt final concentration: 500 μM; total volume: 100 μL). The reaction mixture was placed in a 37° C. incubator and 10 μL of sample were removed at various time points to obtain MALDI-TOF-MS spectra (positive model). Analogous methods were employed to obtain spectra of the reaction products of siRNA with OxaPt(IV), CisPt(II) and CisPt(IV).
MALDI/TOF MS was used to ascertain the kinetics of platinum-RNA adduct formation using BCL-2 siRNA that was incubated with a 10-fold excess of various platinum(II) or platinum(IV) species. […] AAS measurements of siRNA that had been isolated after co-incubation with various platinum species was conducted to determine the concentration of Pt-siRNA adducts formed over time.

5′-GMP = 5′-GMP binding with various platinum species by 1HNMR; details: 10 mM 5′-GMP, 5 mM Pt, 37° C.
Experimental: (10 mM) 5′-GMP and (5 mM) OxaPt(II) were mixed in 700 μL of D2O/H2O (v/v=1:9), transferred to an NMR tube and placed in a 37° C. water bath for various time periods prior to ^1HNMR measurement. […] The binding kinetics of 5′-GMP to each platinum species were determined by measuring the relative amounts of free and Pt-bound 5′-GMP at each time point, integrating the ratio of the ^1HNMR peaks at 8.5 ppm to 8.09 ppm.
OxaPt(II) and CisPt(II) are known to bind to guanine (G) and adenine (A) bases in both DNA and RNA. […] Formation of Pt-(5′-GMP)2 adducts were subsequently monitored by ESI-MS (FIG. 4A and FIG. 4B) and by MALDI/TOF MS (data not shown). Differences in the kinetics of adduct formation by various platinum(II) and platinum(IV) species were subsequently studied by ^1H NMR spectroscopy under similar conditions.

[1] = photostability under continuous laser irradiation; assay type: physicochemical
Source text: FIG. 31D is a plot showing measurements of the photostability of various emissive components of core-shell nanoparticles under continuous irradiation. Note, the same excitation energies were utilized as in FIG. 31C; and, emission was detected using various excitation and emission filters. The photostability of DiR in THF (DiR in THF; black) was included for comparative purposes.
In addition to the emission of these extrinsic reporters, bioluminescence due to the luciferaseluciferin reaction and RFP fluorescence upon 535 nm excitation are also included in FIG. 31C, generating a spectral comparison of all reporters that were subsequently utilized for in vivo and ex vivo imaging (vide infra). Prior to embarking on comparisons of in vivo imaging with different reporters, we examined the photostability of each of the emissive components within the core-shell nanoparticles.

[2] = read-out: in vitro IC50; cited from earlier work

N.N.[Cl][Pt][Cl] [CisPt(II), cisplatin]
time at which Pt-siRNA adducts could be detected (BCL-2 siRNA): ≤ 30 m

O=C1[O][Pt]2([NH][C@@H]3CCCC[C@H]3[NH]2)[O]C1=O [OxaPt(II), Oxaliplatin]
DACHPt(5′-GMP)2 adducts as share of the 5′-GMP pool (5′-GMP; 30 m incubation): approximately 10%
DACHPt(5′-GMP)2 adducts as share of the 5′-GMP pool (5′-GMP; 6 h incubation): > 40%
time at which Pt-siRNA adducts could be detected (BCL-2 siRNA): 1 h

CCCCCCCCCCCCCCCCCCN1C(=CC=CC=CC=CC2=[N+](CCCCCCCCCCCCCCCCCC)c3ccccc3C2(C)C)C(C)(C)c2ccccc21.[I-] [DiR, 1,1′-dioctadecyl-3,3,3′,3′-tetramethylindotricarbocyanine iodide]
initial emission intensity maintained ([1]; DiR incorporated within the PCL shell of the nanoparticles, 1 h): 88%
fluorescence decrease ([1]; free DiR in THF, 1 h of continuous excitation): over 30%

CC[C@H](C)[C@@H]([C@@H](CC(=O)N1CCC[C@H]1[C@H](OC)[C@@H](C)C(=O)N[C@H](C)[C@@H](O)c1ccccc1)OC)N(C)C(=O)[C@@H](NC(=O)[C@@H](NC)C(C)C)C(C)C [MMAE, monomethyl auristatin E] (H-[NMeV]V[Dil][Dolaproine]-X1)
IC50 [2]: 200 to 600 pM
